The source of these data is the NIST ThermoML archive (doi:10.1016/j.jct.2013.08.021).

Numbers after ± are expanded uncertainties.

For data set [1] the following is noted: 101 kPa, Liquid; for speed of sound: Sing-around technique in a fixed-path interferometer; for mass density: Vibrating tube method.
Data set [2] can be described thus: refractive index (Na D-line) (dimensionless). Particulars: 101.33 kPa, Liquid, Standard Abbe refractometry.
A short description of data set [3]: xn = mol fraction of the nth substance listed. The conditions noted are these: 101 kPa, Liquid, x1 = 1; for speed of sound: Sing-around technique in a fixed-path interferometer; for mass density: Vibrating tube method.
A short description of data set [4]: refractive index (Na D-line) (dimensionless); xn = mol fraction of the nth substance listed. Particulars: 101 kPa, Liquid, Standard Abbe refractometry, x1 = 1.

Broadly, the speed of sound is how fast a sound wave travels through the sample. One may read the mass density as the mass of a sample divided by its volume. One may read the refractive index as a measure of how strongly the sample bends light. Consider `CCO` [ethanol], for which the speed of sound in data set [1] (298.15 K) is reported as 1143.9 ± 1.1 m/s; in data set [1] (303.15 K), 1128 ± 1.1 m/s; in data set [1] (308.15 K) it was 1111.8 ± 1.1 m/s. The values for the mass density in data set [1] (298.15 K), in data set [1] (303.15 K) and in data set [1] (308.15 K) were 785.48 ± 0.15 kg/m3, 781.16 ± 0.15 kg/m3 and 776.81 ± 0.15 kg/m3, respectively. Moreover, the refractive index in data set [2] (298.15 K) is on record as 1.35932 ± 0.00031; in data set [2] (303.15 K), 1.35728 ± 0.00031; in data set [2] (308.15 K), 1.35519 ± 0.00031.
As for `CCO` [ethanol] + CCC[N+]1(C)CCCC1.O=S(=O)([N-]S(=O)(=O)C(F)(F)F)C(F)(F)F, the speed of sound in data set [3] (298.15 K) was found to be 1143.9 ± 1.1 m/s; in data set [3] (303.15 K), 1128 ± 1.1 m/s; in data set [3] (308.15 K), 1111.8 ± 1.1 m/s. Besides, the values for the mass density in data set [3] (298.15 K), in data set [3] (303.15 K) and in data set [3] (308.15 K) were 785.48 ± 0.15 kg/m3, 781.16 ± 0.15 kg/m3 and 776.81 ± 0.15 kg/m3, respectively. Moreover, the refractive index was 1.35932 ± 0.00031 in data set [4] (298.15 K), 1.35728 ± 0.00031 in data set [4] (303.15 K) and 1.35519 ± 0.00031 in data set [4] (308.15 K).
Consider `CCCO` [propan-1-ol] + CCC[N+]1(C)CCCC1.O=S(=O)([N-]S(=O)(=O)C(F)(F)F)C(F)(F)F, for which the speed of sound in data set [3] (298.15 K) is reported as 1206.6 ± 1.2 m/s; in data set [3] (303.15 K), 1189.5 ± 1.2 m/s; in data set [3] (308.15 K), 1172.4 ± 1.2 m/s. Further, the mass density in data set [3] (298.15 K) is on record as 799.87 ± 0.14 kg/m3; in data set [3] (303.15 K) it was 795.94 ± 0.14 kg/m3; in data set [3] (308.15 K), 791.78 ± 0.15 kg/m3. The figures for the refractive index in data set [4] (298.15 K), in data set [4] (303.15 K) and in data set [4] (308.15 K) were 1.38309 ± 0.00031, 1.38106 ± 0.00031 and 1.37894 ± 0.00031, respectively.
As to `CO` [methanol], the speed of sound is on record as 1102.7 ± 1.1 m/s in data set [1] (298.15 K), 1086.3 ± 1.1 m/s in data set [1] (303.15 K) and 1070.1 ± 1.1 m/s in data set [1] (308.15 K). The mass density in data set [1] (298.15 K) amounted to 786.66 ± 0.15 kg/m3; in data set [1] (303.15 K), 781.95 ± 0.15 kg/m3; in data set [1] (308.15 K) it was 777.2 ± 0.15 kg/m3. Besides, the refractive index in data set [2] (298.15 K) turned out to be 1.3265 ± 0.00031; in data set [2] (303.15 K) it was 1.32452 ± 0.00031; in data set [2] (308.15 K), 1.32254 ± 0.00031.
As to `CCCO` [propan-1-ol], the speed of sound was 1206.6 ± 1.2 m/s in data set [1] (298.15 K), 1189.5 ± 1.2 m/s in data set [1] (303.15 K) and 1172.4 ± 1.2 m/s in data set [1] (308.15 K). Moreover, the mass density turned out to be 799.87 ± 0.14 kg/m3 in data set [1] (298.15 K), 795.94 ± 0.14 kg/m3 in data set [1] (303.15 K) and 791.78 ± 0.15 kg/m3 in data set [1] (308.15 K). The refractive index was determined as 1.38309 ± 0.00031 in data set [2] (298.15 K), 1.38106 ± 0.00031 in data set [2] (303.15 K) and 1.37894 ± 0.00031 in data set [2] (308.15 K).
As for `CO` [methanol] + CCC[N+]1(C)CCCC1.O=S(=O)([N-]S(=O)(=O)C(F)(F)F)C(F)(F)F, the results for the speed of sound in data set [3] (298.15 K), in data set [3] (303.15 K) and in data set [3] (308.15 K) were 1102.7 ± 1.1 m/s, 1086.3 ± 1.1 m/s and 1070.1 ± 1.1 m/s, respectively. Besides, the mass density in data set [3] (298.15 K) was 786.66 ± 0.15 kg/m3; in data set [3] (303.15 K), 781.95 ± 0.15 kg/m3; in data set [3] (308.15 K), 777.2 ± 0.15 kg/m3. For the same molecule, the refractive index in data set [4] (298.15 K) was 1.3265 ± 0.00031; in data set [4] (303.15 K) it was 1.32452 ± 0.00031; in data set [4] (308.15 K) it was 1.32254 ± 0.00031.
